The values that follow come from ChEMBL document CHEMBL1201862, “PubChem BioAssay data set” (2004).

The structures appear in SMILES notation. Values joined by “and” are separate entries in the source; they are usually repeats but may differ in a detail not shown here. Equal values may be shown once.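 96-well plates; 48 h exposure; 5 concentrations. Endpoints by linear interpolation between flanking doses. Not reached: highest tested concentration assigned. GI50 = concentration required for 50% inhibition of growth.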 Active and inactive are the calls of the source. Cut-off read from the data, not from the text of the source: active = GI50 up to about 1.1 µM and inactive = higher.

Test systems include HOP-92; NCI-H522; UACC-257; OVCAR-5; HCT-15; SNB-75; K562; MOLT-4; RXF 393; UO-31; SF-268; HOP-62; SF-295; HCT-116; DU-145; MDA-MB-435; NCI-H226; LOX IMVI; TK-10.
Assay in all cases: growth of human tumour cells (NCI), 48 h

For `Cc1n[nH]c(=O)n1/N=C/c1c[nH]c2ccccc12`, the GI50 in the experiment with HOP-92 is > 100 µM (inactive); in the experiment on NCI-H522, > 100 µM (inactive); with UACC-257, > 100 µM (inactive); in the experiment with OVCAR-5, 83.4 µM (inactive); in the experiment on HCT-15, more than 100 µM; with SNB-75, 32.9 µM (inactive). The GI50 in the experiment with K562 was > 100 µM (inactive); with MOLT-4, > 100 µM (inactive); with RXF 393 it was 20.9 µM (inactive); in the experiment with UO-31, > 100 µM (inactive); with SF-268 it was > 100 µM (inactive); in the experiment with HOP-62, > 100 µM (inactive). The GI50 in the experiment on SF-295, in the experiment on HCT-116, in the experiment with DU-145 and in the experiment with MDA-MB-435 was > 100 µM (inactive) each time.

For `COc1ccc(/C=C2/N/C(=N\N=C/C(O)C(O)C(O)CO)NC2=O)cc1` (stereo unspecified), the GI50 in the experiment with HOP-92 is 48.3 µM (inactive) and 42.6 µM (inactive); with NCI-H226 it was 87.7 µM (inactive); in the experiment with UACC-257, > 100 µM (inactive); in the experiment on LOX IMVI, > 100 µM (inactive); in the experiment on TK-10, > 100 µM (inactive); in the experiment with OVCAR-5, > 100 µM (inactive). The GI50 with HCT-15 was more than 100 µM; in the experiment with MOLT-4 it was 88.1 µM (inactive); in the experiment with RXF 393 it was > 100 µM (inactive); in the experiment on UO-31, > 100 µM (inactive); in the experiment with SF-268, 57.5 µM (inactive); in the experiment on SF-295 it was > 100 µM (inactive). Also, the GI50 is > 100 µM (inactive) with HCT-116; > 100 µM (inactive) and 71.3 µM (inactive) with DU-145; > 100 µM (inactive) and 74.1 µM (inactive) with MDA-MB-435.

For the molecule `COc1cc(C2SCC(=O)N2NC(=O)c2ccc(NC(C)=O)cc2)cc(OC)c1OC` (stereo unspecified), the GI50 is > 100 µM (inactive) in the experiment with HOP-92; > 100 µM (inactive) in the experiment with NCI-H226; > 100 µM (inactive) with UACC-257; > 100 µM (inactive) with TK-10; > 100 µM (inactive) in the experiment on OVCAR-5; more than 100 µM in the experiment with HCT-15. Also, the GI50 with SNB-75 was > 100 µM (inactive); in the experiment with K562, 35.8 µM (inactive); in the experiment with MOLT-4, > 100 µM (inactive); in the experiment on RXF 393, > 100 µM (inactive); with UO-31, > 100 µM (inactive); in the experiment on SF-268 it was > 100 µM (inactive). The GI50 with HOP-62, with SF-295, with HCT-116, in the experiment on DU-145 and in the experiment with MDA-MB-435 was > 100 µM (inactive) in each case.

In the case of `O=C(/C=C/C(=O)N1CCCC1)N1CCCC1`, the GI50 with HOP-92, with NCI-H522, in the experiment with UACC-257, in the experiment with LOX IMVI, in the experiment on TK-10 and with OVCAR-5 was > 100 µM (inactive) each time. Moreover, the GI50 in the experiment on HCT-15 is more than 100 µM; in the experiment on K562, > 100 µM (inactive); in the experiment with MOLT-4, > 100 µM (inactive); with RXF 393, > 100 µM (inactive); in the experiment with UO-31 it was > 100 µM (inactive); in the experiment on SF-268, > 100 µM (inactive). In addition, the GI50 in the experiment on HOP-62, in the experiment on SF-295, with HCT-116, in the experiment on DU-145 and in the experiment with MDA-MB-435 was > 100 µM (inactive) each time.

Regarding `O=NC1c2cccc3cccc(c23)C1N=O` (stereo unspecified), the GI50 with HOP-92 was 7.11 µM (inactive); in the experiment with NCI-H522 it was 1.93 µM (inactive); in the experiment on UACC-257, 12.9 µM (inactive); with LOX IMVI, 1.59 µM (inactive); in the experiment with TK-10 it was 10.2 µM (inactive); with OVCAR-5, 2.83 µM (inactive). Further, the GI50 in the experiment with HCT-15 was 1.79 µM; with SNB-75, 9.79 µM (inactive); with K562, 2.65 µM (inactive); in the experiment on MOLT-4, 0.612 µM (active); with RXF 393, 3.51 µM (inactive); in the experiment with UO-31, 2.76 µM (inactive). The GI50 with SF-268 was 10.2 µM (inactive); with HOP-62, 5.26 µM (inactive); in the experiment on SF-295, 9.31 µM (inactive); in the experiment with HCT-116, 1.34 µM (inactive); in the experiment with DU-145, 11.1 µM (inactive); in the experiment on MDA-MB-435, 4.78 µM (inactive).

For the molecule `Nc1ncc(Cc2nn3c(COc4ccc(Cl)cc4)nnc3s2)s1`, the GI50 is > 100 µM (inactive) in the experiment on HOP-92; > 100 µM (inactive) in the experiment on NCI-H522; > 100 µM (inactive) in the experiment with NCI-H226; > 100 µM (inactive) in the experiment with UACC-257; 45.2 µM (inactive) in the experiment on TK-10; > 100 µM (inactive) in the experiment with OVCAR-5. In addition, the GI50 in the experiment with HCT-15 was 0.748 µM; in the experiment on SNB-75, > 100 µM (inactive); in the experiment on K562, > 100 µM (inactive); in the experiment with MOLT-4, > 100 µM (inactive); in the experiment on RXF 393, > 100 µM (inactive); with UO-31, > 100 µM (inactive). The GI50 with SF-268, in the experiment on HOP-62, in the experiment on SF-295, with HCT-116, with DU-145 and with MDA-MB-435 was > 100 µM (inactive) throughout.

Regarding `CC(=O)c1cccc(NC2C(N)C(NC(=O)N(C)C)(C(C)O)C(C)(O)C2(O)COC(=O)c2c(C)cccc2O)c1` (stereo unspecified), the GI50 was < 0.001 µM (active) in the experiment with HOP-92; 0.01 µM (active) in the experiment on NCI-H522; < 0.001 µM (active) in the experiment with NCI-H226; 0.00113 µM (active) with UACC-257; < 0.001 µM (active) in the experiment with TK-10; < 0.001 µM (active) with OVCAR-5. Further, the GI50 is 0.00296 µM in the experiment with HCT-15; 0.0948 µM (active) in the experiment on SNB-75; < 0.001 µM (active) with K562; < 0.001 µM (active) in the experiment with MOLT-4; < 0.001 µM (active) in the experiment on RXF 393; 0.00191 µM (active) in the experiment with UO-31. For the same molecule, the GI50 with SF-268 was 0.0263 µM (active); in the experiment with HOP-62 it was < 0.001 µM (active); with SF-295, 0.00107 µM (active); with HCT-116, < 0.001 µM (active); in the experiment with DU-145, < 0.001 µM (active); with MDA-MB-435, < 0.001 µM (active).

Regarding `COC(=O)C1(C(=O)OC)CC2=C(S(=O)(=O)c3ccccc3)C[C@@H](C#N)[C@H]2C1`, the GI50 is 28.9 µM (inactive) in the experiment on HOP-92; 43.7 µM (inactive) in the experiment with NCI-H522; > 100 µM (inactive) with NCI-H226; > 100 µM (inactive) in the experiment on UACC-257; > 100 µM (inactive) in the experiment on LOX IMVI; > 100 µM (inactive) with TK-10. For the same molecule, the GI50 in the experiment on OVCAR-5 was > 100 µM (inactive); in the experiment on HCT-15, 37.9 µM; with SNB-75, > 100 µM (inactive); with K562 it was > 100 µM (inactive); in the experiment with MOLT-4, > 100 µM (inactive); in the experiment with UO-31, > 100 µM (inactive). Besides, the GI50 in the experiment with SF-268, in the experiment with HOP-62, in the experiment on SF-295, in the experiment with HCT-116, in the experiment on DU-145 and with MDA-MB-435 was > 100 µM (inactive) each time.

Regarding `Cc1ccc(/N=N/C(=N/c2ccccc2)c2ccc(N(CCC#N)CCC#N)cc2)cc1`, the GI50 in the experiment on HOP-92 was 22 µM (inactive); with NCI-H522, 17.4 µM (inactive); with NCI-H226 it was 27.7 µM (inactive); with UACC-257, 19.3 µM (inactive); in the experiment on TK-10, 27.2 µM (inactive); in the experiment on OVCAR-5, 54.2 µM (inactive). Also, the GI50 in the experiment on HCT-15 was 44.8 µM; in the experiment on SNB-75, 31.1 µM (inactive); in the experiment with K562 it was 47.3 µM (inactive); in the experiment on MOLT-4, 43.7 µM (inactive); in the experiment on RXF 393, 22.3 µM (inactive); in the experiment with UO-31, 60.3 µM (inactive). In addition, the GI50 with SF-268 is 40.3 µM (inactive); in the experiment with HOP-62, 30.1 µM (inactive); in the experiment on SF-295, 27.2 µM (inactive); in the experiment with HCT-116, 32.9 µM (inactive); in the experiment on DU-145 it was 36.6 µM (inactive); in the experiment with MDA-MB-435 it was 38 µM (inactive).

For `O=C1/C(=C/c2cccc([N+](=O)[O-])c2)Cc2ccccc21`, the GI50 in the experiment on HOP-92 was 75.3 µM (inactive); with NCI-H522, 59.3 µM (inactive); in the experiment on NCI-H226, > 100 µM (inactive); in the experiment with UACC-257, > 100 µM (inactive); with LOX IMVI, > 100 µM (inactive); in the experiment with TK-10, > 100 µM (inactive). Besides, the GI50 in the experiment with OVCAR-5 was > 100 µM (inactive); with HCT-15 it was 72.8 µM; with SNB-75 it was > 100 µM (inactive); in the experiment on K562, > 100 µM (inactive); in the experiment on MOLT-4 it was > 100 µM (inactive); in the experiment with UO-31 it was 94.8 µM (inactive). Also, the GI50 is > 100 µM (inactive) with SF-268; > 100 µM (inactive) in the experiment on HOP-62; > 100 µM (inactive) with SF-295; 39.7 µM (inactive) in the experiment on HCT-116; > 100 µM (inactive) in the experiment with DU-145; > 100 µM (inactive) with MDA-MB-435.

In the case of `c1ccc2c(-c3csc(-c4c[nH]c5ccccc45)n3)c[nH]c2c1`, the GI50 with HOP-92 is > 100 µM (inactive); with NCI-H226 it was > 100 µM (inactive); with UACC-257, > 100 µM (inactive); with LOX IMVI, 21.8 µM (inactive); in the experiment with TK-10 it was 63.8 µM (inactive); with OVCAR-5 it was > 51.9 µM (inactive). Further, the GI50 in the experiment with HCT-15 is more than 100 µM; in the experiment on SNB-75 it was > 22.4 µM (inactive); in the experiment on K562, 3.37 µM (inactive); in the experiment with MOLT-4, 4.86 µM (inactive); in the experiment with RXF 393 it was > 100 µM (inactive); in the experiment with UO-31, > 48.1 µM (inactive). The GI50 in the experiment on SF-268 was > 100 µM (inactive); with HOP-62, 56.4 µM (inactive); with SF-295, 15.4 µM (inactive); in the experiment with HCT-116, > 48.8 µM (inactive); with DU-145, > 76.7 µM (inactive); with MDA-MB-435, 35.8 µM (inactive).
